In patent US20050282755A1, “Compositions having antimicrobial activity and uses thereof” (priority 2004, published 2005):
In brackets after ≈: the same amount, converted by molar mass. Like-named read-outs stand apart in the source and are kept apart here. Values belong to the compound of their own block, whether it stands above or below them. Non-standard residues stand in square brackets, D forms with d. Residues, ends and D or L forms follow the SMILES beside them. *: point of attachment. Lauroyl = CCCCCCCCCCCC(=O)*; Decanoyl = CCCCCCCCCC(=O)*; Octanoyl = CCCCCCCC(=O)*

Tests used:
Type in all cases: cell-based
[1] = test system: Staphylococcus aureus ATCC 29213; assay: MIC, NCCLS M7-A6 broth microdilution, cation-adjusted Mueller Hinton broth (Table 9, no superscript); settings: ATCC 29213
Procedure, shortened: (§1)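 MIC determined by microdilution in cation-adjusted Mueller Hinton broth after overnight growth at 37° C, defined as the lowest peptide level lacking turbidity.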

[2] = test system: Propionibacterium acnes ATCC 6919
Method: A second method that was used to determine the MIC in P. acnes for selected antimicrobial agents was a non-standard broth microdilution method that used an assay buffer composed of reinforced Clostridial broth. Briefly, a log-phase bacterial culture of P. acnes was used to inoculate wells of a 96-well plate so that the final inoculum for each well contained 5×10^5 to 1×10^6 CFU/milliliter. […] Plates were incubated for 48-72 hours at 37° C. in a GasPak anaerobic chamber. The lowest concentration of peptide that contained no visible growth as evidenced by a lack of turbidity when compared to the control (no peptide) was determined as the MIC. MIC values that utilized this method of MIC determination are indicated in Table 9 with a subscript letter “d.”

[3] = test system: Salmonella dublin (Lane); assay: MIC, NCCLS M7-A6 broth microdilution (Table 9, no superscript)
Procedure, shortened: as §1

[4] = test system: Propionibacterium acnes ATCC 6919; assay: MIC, agar dilution method NCCLS M11-A6, Brucella agar, anaerobic (Table 9, superscript c); settings: ATCC 6919
Procedure, shortened: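 MIC taken as the lowest peptide level giving no colonies on the plate. Plates were inoculated to 1.5×10^8 CFU/milliliter, then kept anaerobically at 37° C. for 48-96 hours; method follows NCCLS M11-A6.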

[5] = test system: Candida albicans ATCC 18804; assay: MIC in yeasts, NCCLS M27-A2 broth microdilution, RPMI 1640 (Table 9, letter e); settings: ATCC 18804
Procedure, shortened: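 Plates incubated 24 to 48 hours at 37° C, with yeast seeded at 0.5×10^3–2.5×10^3 CFU/milliliter final in RPMI 1640 (glutamine, phenol red indicator). MIC was read as the lowest peptide concentration showing no visible growth.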

[6] = test system: Escherichia coli ATCC 25922; assay: MIC, NCCLS M7-A6 broth microdilution (Table 9, no superscript); settings: ATCC 25922
Procedure, shortened: as §1

[7] = test system: Staphylococcus epidermidis ATCC 12228; assay: as above; settings: ATCC 12228
Procedure, shortened: as §1

[8] = test system: Pseudomonas aeruginosa ATCC 27853; assay: as above; settings: ATCC 27853
Procedure, shortened: as §1

- MIC P. acnes [4]: >64c ug/mL
- MIC S. aureus [1]: 16 mg/L (≈ 7.86 µM)
- MIC C. albicans [5]: 64e ug/mL
- MIC E. coli [6]: 64 mg/L (≈ 31.5 µM)
- MIC S. epidermidis [7]: 32 mg/L (≈ 15.7 µM)
- MIC S. dublin [3]: 64 mg/L (≈ 31.5 µM)
- MIC P. aeruginosa [8]: >64 mg/L
SMILES: CCCCCCCCCCCC(=O)N[C@H](CCCNC(=N)N)C(=O)N[C@H](CO)C(=O)N[C@H](CCCNC(=N)N)C(=O)N[C@H](Cc1c[nH]c2ccccc12)C(=O)N[C@H](CCCNC(=N)N)C(=O)N[C@H](CC(=O)O)C(=O)N[C@@H](C(=O)N[C@H](C)C(=O)N[C@H](CCCNC(=N)N)C(=O)N[C@H](CC(N)=O)C(=O)N[C@H](Cc1ccccc1)C(=O)N[C@H](CCSC)C(=O)N[C@H](CCCNC(=N)N)C(=O)N[C@H](CS)C(N)=O)C(C)C [Peptide 247, Lauryl-rsrwrdvarnfmrc-NH2] (Lauroyl-[dR][dS][dR][dW][dR][dD][dV][dA][dR][dN][dF][dM][dR][dC]-NH2)

- MIC P. acnes [4]: 8c ug/mL
- MIC S. aureus [1]: 2 mg/L (≈ 1.04 µM)
- MIC C. albicans [5]: 8e ug/mL
- MIC E. coli [6]: 4 mg/L (≈ 2.07 µM)
- MIC S. epidermidis [7]: 2 mg/L (≈ 1.04 µM)
- MIC S. dublin [3]: 4 mg/L (≈ 2.07 µM)
- MIC P. aeruginosa [8]: 8 mg/L (≈ 4.14 µM)
SMILES: CCCCCCCCCCCC(=O)N[C@H](CCCNC(=N)N)C(=O)N[C@H](CO)C(=O)N[C@H](CCCNC(=N)N)C(=O)N[C@H](Cc1c[nH]c2ccccc12)C(=O)N[C@H](CCCNC(=N)N)C(=O)N[C@H](CC(=O)O)C(=O)N[C@@H](C(=O)N[C@H](C)C(=O)N[C@H](CCCNC(=N)N)C(=O)N[C@H](CC(=O)O)C(=O)N[C@H](Cc1ccccc1)C(=O)N[C@H](CCSC)C(=O)N[C@H](CCCNC(=N)N)C(N)=O)C(C)C [Peptide 249, Lauryl-rsrwrdvardfmr-NH2] (Lauroyl-[dR][dS][dR][dW][dR][dD][dV][dA][dR][dD][dF][dM][dR]-NH2)

- MIC P. acnes [4]: 16c ug/mL
- MIC S. aureus [1]: 16 mg/L (≈ 8.62 µM)
- MIC C. albicans [5]: 64e ug/mL
- MIC E. coli [6]: 16 mg/L (≈ 8.62 µM)
- MIC S. epidermidis [7]: 2 mg/L (≈ 1.08 µM)
- MIC S. dublin [3]: 64 mg/L (≈ 34.5 µM)
- MIC P. aeruginosa [8]: 16 mg/L (≈ 8.62 µM)
SMILES: CCCCCCCC(=O)N[C@H](CCCNC(=N)N)C(=O)N[C@H](CO)C(=O)N[C@H](CCCNC(=N)N)C(=O)N[C@H](Cc1c[nH]c2ccccc12)C(=O)N[C@H](CCCNC(=N)N)C(=O)N[C@H](CC(=O)O)C(=O)N[C@@H](C(=O)N[C@H](C)C(=O)N[C@H](CCCNC(=N)N)C(=O)N[C@H](CC(N)=O)C(=O)N[C@H](Cc1ccccc1)C(=O)N[C@H](CC(C)C)C(=O)N[C@H](CCCNC(=N)N)C(N)=O)C(C)C [Peptide 252, Octyl-rsrwrdvarnflr-NH2] (Octanoyl-[dR][dS][dR][dW][dR][dD][dV][dA][dR][dN][dF][dL][dR]-NH2)

- MIC P. acnes [4]: 2c ug/mL
- MIC S. aureus [1]: 2 mg/L (≈ 1.06 µM)
- MIC C. albicans [5]: 16e ug/mL
- MIC E. coli [6]: 2 mg/L (≈ 1.06 µM)
- MIC S. epidermidis [7]: 1 mg/L (≈ 0.53 µM)
- MIC S. dublin [3]: 8 mg/L (≈ 4.24 µM)
- MIC P. aeruginosa [8]: 4 mg/L (≈ 2.12 µM)
SMILES: CCCCCCCCCC(=O)N[C@H](CCCNC(=N)N)C(=O)N[C@H](CO)C(=O)N[C@H](CCCNC(=N)N)C(=O)N[C@H](Cc1c[nH]c2ccccc12)C(=O)N[C@H](CCCNC(=N)N)C(=O)N[C@H](CC(=O)O)C(=O)N[C@@H](C(=O)N[C@H](C)C(=O)N[C@H](CCCNC(=N)N)C(=O)N[C@H](CC(N)=O)C(=O)N[C@H](Cc1ccccc1)C(=O)N[C@H](CC(C)C)C(=O)N[C@H](CCCNC(=N)N)C(N)=O)C(C)C [Peptide 253, Decanyl-rsrwrdvarnflr-NH2] (Decanoyl-[dR][dS][dR][dW][dR][dD][dV][dA][dR][dN][dF][dL][dR]-NH2)

Continued, compound first:

SMILES: CSCC[C@@H](NC(=O)[C@@H](Cc1ccccc1)NC(=O)[C@@H](CC(N)=O)NC(=O)[C@@H](CCCNC(=N)N)NC(=O)[C@@H](CO)NC(=O)[C@@H](Cc1c[nH]c2ccccc12)NC(=O)[C@@H](CC(=O)O)NC(=O)[C@@H](CCCNC(=N)N)NC(=O)[C@@H](Cc1c[nH]c2ccccc12)NC(=O)[C@@H](CCCNC(=N)N)NC(=O)[C@@H](CO)NC(=O)[C@@H](CCCNC(=N)N)NC(=O)CNC(=O)[C@H](NC(=O)[C@@H](CCCNC(=N)N)NC(=O)[C@@H](CO)NC(=O)[C@H](NC(=O)[C@@H](CCCNC(=N)N)NC(=O)[C@H](NC(C)=O)[C@H](C)O)C(C)C)[C@H](C)O)C(=O)N[C@H](CCCNC(=N)N)C(=O)N[C@H](CCCCN)C(=O)N[C@H](CCCCN)C(=O)N[C@H](CCCCN)C(=O)N[C@H](CCCCN)C(=O)N[C@H](CCCCN)C(=O)N[C@H](CCCCN)C(=O)N[C@H](CCCCN)C(=O)N[C@H](CCCCN)C(N)=O [Peptide 34, Ac-trvsrtgrsrwrdwsrnfmrkkkkkkkk-NH2] (Ac-[dT][dR][dV][dS][dR][dT]G[dR][dS][dR][dW][dR][dD][dW][dS][dR][dN][dF][dM][dR][dK][dK][dK][dK][dK][dK][dK][dK]-NH2)
- MIC S. aureus [1]: >64 mg/L
- MIC P. acnes [2]: 6 µg·days/mL
- MIC S. dublin [3]: >64 mg/L

SMILES: CC(=O)N[C@@H](C(=O)N[C@H](CCCNC(=N)N)C(=O)N[C@@H](C(=O)N[C@H](CO)C(=O)N[C@H](CCCNC(=N)N)C(=O)N[C@@H](C(=O)NCC(=O)N[C@H](CCCNC(=N)N)C(=O)N[C@H](CO)C(=O)N[C@H](CCCNC(=N)N)C(=O)N[C@H](Cc1c[nH]c2ccccc12)C(=O)N[C@H](CCCNC(=N)N)C(=O)N[C@H](CC(=O)O)C(=O)N[C@H](Cc1c[nH]c2ccccc12)C(=O)N[C@H](CO)C(=O)N[C@H](CCCNC(=N)N)C(=O)N[C@H](CC(N)=O)C(=O)N[C@H](Cc1ccccc1)C(=O)N[C@H](C)C(=O)N[C@H](CCCNC(=N)N)C(N)=O)[C@H](C)O)C(C)C)[C@H](C)O [Peptide 61, Ac-trvsrtgrsrwrdwsrnfar-NH2] (Ac-[dT][dR][dV][dS][dR][dT]G[dR][dS][dR][dW][dR][dD][dW][dS][dR][dN][dF][dA][dR]-NH2)
- MIC S. aureus [1]: >64 mg/L
- MIC P. acnes [2]: 12.5 µg·days/mL
- MIC S. dublin [3]: >64 mg/L

SMILES: CCCCCCCCCCCC(=O)N[C@H](CCCNC(=N)N)C(=O)N[C@H](CO)C(=O)N[C@H](C)C(=O)N[C@H](Cc1c[nH]c2ccccc12)C(=O)N[C@H](CCCNC(=N)N)C(=O)N[C@H](CC(=O)O)C(=O)N[C@@H](C(=O)N[C@H](C)C(=O)N[C@H](CCCNC(=N)N)C(=O)N[C@H](CC(N)=O)C(=O)N[C@H](Cc1ccccc1)C(=O)N[C@H](CCSC)C(=O)N[C@H](CCCNC(=N)N)C(N)=O)C(C)C [Peptide 238, Lauryl-rsawrdvarnfmr-NH2] (Lauroyl-[dR][dS][dA][dW][dR][dD][dV][dA][dR][dN][dF][dM][dR]-NH2)
- MIC P. acnes [4]: 32c ug/mL
- MIC S. aureus [1]: 8 mg/L (≈ 4.33 µM)
- MIC C. albicans [5]: 16e ug/mL
- MIC E. coli [6]: 8 mg/L (≈ 4.33 µM)
- MIC S. epidermidis [7]: 8 mg/L (≈ 4.33 µM)
- MIC S. dublin [3]: 8 mg/L (≈ 4.33 µM)
- MIC P. aeruginosa [8]: 64 mg/L (≈ 34.7 µM)

SMILES: CCCCCCCCCCCC(=O)N[C@H](CCCNC(=N)N)C(=O)N[C@H](CO)C(=O)N[C@H](CCCNC(=N)N)C(=O)N[C@H](C)C(=O)N[C@H](CCCNC(=N)N)C(=O)N[C@H](CC(=O)O)C(=O)N[C@@H](C(=O)N[C@H](C)C(=O)N[C@H](CCCNC(=N)N)C(=O)N[C@H](CC(N)=O)C(=O)N[C@H](Cc1ccccc1)C(=O)N[C@H](CCSC)C(=O)N[C@H](CCCNC(=N)N)C(N)=O)C(C)C [Peptide 239, Lauryl-rsrardvarnfmr-NH2] (Lauroyl-[dR][dS][dR][dA][dR][dD][dV][dA][dR][dN][dF][dM][dR]-NH2)
- MIC P. acnes [4]: 8c ug/mL
- MIC S. aureus [1]: 16 mg/L (≈ 8.81 µM)
- MIC C. albicans [5]: 64e ug/mL
- MIC E. coli [6]: 16 mg/L (≈ 8.81 µM)
- MIC S. epidermidis [7]: 4 mg/L (≈ 2.2 µM)
- MIC S. dublin [3]: 64 mg/L (≈ 35.2 µM)
- MIC P. aeruginosa [8]: 32 mg/L (≈ 17.6 µM)

SMILES: CCCCCCCCCCCC(=O)N[C@H](CCCNC(=N)N)C(=O)N[C@H](CO)C(=O)N[C@H](CCCNC(=N)N)C(=O)N[C@H](Cc1c[nH]c2ccccc12)C(=O)N[C@H](C)C(=O)N[C@H](CC(=O)O)C(=O)N[C@@H](C(=O)N[C@H](C)C(=O)N[C@H](CCCNC(=N)N)C(=O)N[C@H](CC(N)=O)C(=O)N[C@H](Cc1ccccc1)C(=O)N[C@H](CCSC)C(=O)N[C@H](CCCNC(=N)N)C(N)=O)C(C)C [Peptide 240, Lauryl-rsrwadvarnfmr-NH2] (Lauroyl-[dR][dS][dR][dW][dA][dD][dV][dA][dR][dN][dF][dM][dR]-NH2)
- MIC P. acnes [4]: 16c ug/mL
- MIC S. aureus [1]: 2 mg/L (≈ 1.08 µM)
- MIC C. albicans [5]: 16e ug/mL
- MIC E. coli [6]: 4 mg/L (≈ 2.17 µM)
- MIC S. epidermidis [7]: 2 mg/L (≈ 1.08 µM)
- MIC S. dublin [3]: 4 mg/L (≈ 2.17 µM)
- MIC P. aeruginosa [8]: 16 mg/L (≈ 8.67 µM)
